In data set [1] the test system is human embryonic stem cell derived neural stem cells (NSCs). The data set is described as follows: Neural Stem Cell Proliferation Assay (neurogenesis assay, ATP levels by CellTiterGlo). The conditions noted are these: 96 h, compound concentration at which 150% activity of control (100%) is reached, NSC proliferation by ATP level after 4 days incubation, dose response 8 μM to 8 nM. It is filed as cell-based. As to the method:
Neurogenic properties of small molecules are determined based on the proliferation of human embryonic stem cell derived neural stem cells (NSCs) which were derived via a dual smad inhibition as previously described (Chambers, S. M., et al., Highly efficient neural conversion of human ES and iPS cells by dual inhibition of SMAD signaling, Nature biotechnology, 2009. 27(3): p. 275-80.)
Compounds respond is measured by the increase in cells based on ATP levels
(Promega:CellTiterGlo®) after an incubation period of 4 days.
NSCs are thawed and expanded over 3 passages. On the 14th day, NSCs are seeded in Polyornithin/Laminin coated 384 well plates at a cell density of 21′000 cells/cm^2 in a media volume of 38 μl.
4 hours after cell seeding, compound solutions are added at a volume of 2 μl. Stock solutions of the compounds (water, 5% DMSO) are diluted to obtain a dose response (11 points, dilution factor is 2), ranging from 8 μM to 8 nM. Controls are run to consistently determine the neurogenic properties of the cells:
Negative (neutral) control is cell culture Media (final DMSO concentration: 0.25%).
• 1. cell culture Media+100 ng/ml FGF2 (final DMSO concentration: 0.1%) • 2. cell culture Media+20 ng/ml EGF (final DMSO concentration: 0.1%) • 3. cell culture Media+100 ng/ml Wnt3a (final DMSO concentration: 0.1%)
After 4 days incubation at 37° C., 5% CO2, the amount of ATP per well is quantified. The ATP concentration is proportional to the cell number. ATP is quantified by using the Promega CellTiterGlo® kit. The CellTiterGlo® reagents contain a cell lysis buffer, a thermo stable luciferase (UltraGlo™ recombinant luciferase), magnesium and luciferin. Luciferin reacts with ATP producing oxyluciferin, AMP and light. The luminescence signal is proportional to the ATP content.
The value of negative (neutral) control is determined for each assay plate by taking the average of 16 negative control wells. The neurogenic compound response is calculated for each compound as (compound/Negative Control)*100.
The values of EC150 from the dose response curve are determined for each test compound. The EC150 is the compound concentration at which 150% activity of control (100%) is reached.
Background: In ATP-based viability assays light output follows the ATP content of the culture.

For the compound `N#Cc1cc(-c2ccc(Cl)c(F)c2)c2c(c1)cc1n2CCCNC1=O` [Example 252, 7-(4-Chloro-3-fluorophenyl)-1-oxo-2,3,4,5-tetrahydro-[1,4]diazepino[1,2-a]indole-9-carbonitrile], the melting point amounted to 221.5 °C. In data set [1], this compound returned an EC (150% of control) of 1.38 µM.

For the compound `O=C1NCCCn2c1cc1c(F)c(F)cc(-c3ccc(F)cc3)c12` [Example 36, 9,10-Difluoro-7-(4-fluoro-phenyl)-2,3,4,5-tetrahydro-[1,4]diazepino[1,2-a]indol-1-one], the melting point came out at 287 °C. The compound further yielded an EC (150% of control) in data set [1] of 3.9 µM.

For the compound `COc1cc(-c2ccc(C(F)(F)F)cc2)c2c(c1)cc1n2CCNC1=O` [Example 213, 8-Methoxy-6-[4-(trifluoromethyl)-phenyl]-3,4-dihydro-2H-pyrazino[1,2-a]indol-1-one], the melting point was 276 °C. In data set [1], this compound returned an EC (150% of control) of 0.8 µM.

For the compound `N#Cc1cc(-c2ccc(F)cc2)c2c(c1)cc1n2CCCNC1=O` [Example 215, 7-(4-Fluorophenyl)-1-oxo-2,3,4,5-tetrahydro-[1,4]diazepino[1,2-a]indole-9-carbonitrile], the melting point is 230 °C. Besides, the EC (150% of control) in data set [1] was determined as 0.09 µM.

`Cc1cc(-c2ccc(Cl)cc2)c2c(c1)cc1n2CCNC1=O` [Example 59, 6-(4-Chloro-phenyl)-8-methyl-3,4-dihydro-2H-pyrazino[1,2-a]indol-1-one] gave a melting point of 269 °C. The EC (150% of control) in data set [1] was 0.18 µM.

For the compound `N#Cc1cc(-c2ccc(Cl)nc2)c2c(c1)cc1n2CCNC1=O` [Example 226, 6-(6-Chloropyridin-3-yl)-1-oxo-3,4-dihydro-2H-pyrazino[1,2-a]indole-8-carbonitrile], the melting point was 300.5 °C. This compound also came in with an EC (150% of control) in data set [1] of 2.2 µM.

As for `Cc1c2n(c3c(-c4cccnc4)cc(F)cc13)CCNC2=O` [Example 152, 8-Fluoro-10-methyl-6-pyridin-3-yl-3,4-dihydro-2H-pyrazino[1,2-a]indol-1-one], the melting point amounted to 239 °C. In addition, in data set [1], the EC (150% of control) was 0.13 µM.

In turn, `COc1ncc(-c2cc(F)cc3c(C)c4n(c23)CCNC4=O)cn1` [Example 156, 8-Fluoro-6-(2-methoxy-pyrimidin-5-yl)-10-methyl-3,4-dihydro-2H-pyrazino[1,2-a]indol-1-one] came in with a melting point of 271 °C. The compound also registered an EC (150% of control) in data set [1] of 0.11 µM.

The compound `Cc1c2n(c3c(-c4ccc(Cl)cc4F)cc(F)cc13)CCNC2=O` [Example 121, 6-(4-Chloro-2-fluoro-phenyl)-8-fluoro-10-methyl-3,4-dihydro-2H-pyrazino[1,2-a]indol-1-one] gave a melting point of 221 °C. The EC (150% of control) in data set [1] was 0.01 µM.

The compound `N#Cc1cc(-c2ccc([N+](=O)[O-])cc2)c2c(c1)cc1n2CCCNC1=O` [Example 234, 7-(4-Nitrophenyl)-1-oxo-2,3,4,5-tetrahydro-[1,4]diazepino[1,2-a]indole-9-carbonitrile] had a melting point of 193.5 °C. The compound further registered an EC (150% of control) in data set [1] of 0.21 µM.

Compound `C[C@@H]1CNC(=O)c2cc3cc(F)cc(-c4ccc(F)c(F)c4)c3n21` [Example 10, (R)-6-(3,4-Difluoro-phenyl)-8-fluoro-4-methyl-3,4-dihydro-2H-pyrazino[1,2-a]indol-1-one] gave a melting point of 267 °C. For the same compound, the EC (150% of control) in data set [1] stood at 0.22 µM.

Consider `CC1CCNC(=O)c2cc3cc(F)cc(-c4ccc(F)cc4)c3n21` (racemic) [Example 27, (RS)-9-Fluoro-7-(4-fluoro-phenyl)-5-methyl-2,3,4,5-tetrahydro-[1,4]diazepino[1,2-a]indol-1-one], for which the melting point came out at 235.5 °C. Besides, the EC (150% of control) in data set [1] is 0.18 µM.

As for `Cc1c2n(c3c(-c4nnc(C(F)(F)F)s4)cc(F)cc13)CCNC2=O` [Example 184, 8-Fluoro-10-methyl-6-[5-(trifluoromethyl)-1,3,4-thiadiazol-2-yl]-3,4-dihydro-2H-pyrazino[1,2-a]indol-1-one], the melting point is 227 °C. Moreover, in data set [1], the EC (150% of control) is 1.11 µM.

Regarding `COc1ccc(-c2cc(F)cc3cc4n(c23)CCNC4=O)cc1` [Example 19, 8-Fluoro-6-(4-methoxy-phenyl)-3,4-dihydro-2H-pyrazino[1,2-a]indol-1-one], the melting point amounted to 274.5 °C. Also, the EC (150% of control) in data set [1] was determined as 0.007 µM.

For `Cc1ccc(-c2cc(C#N)cc3c(C)c4n(c23)CCNC4=O)cc1F` [Example 267, 6-(3-Fluoro-4-methylphenyl)-10-methyl-1-oxo-3,4-dihydro-2H-pyrazino[1,2-a]indole-8-carbonitrile], the melting point was found to be 255 °C. Also, in data set [1], the EC (150% of control) turned out to be 0.71 µM.

As to `N#Cc1cc(-c2ccccc2)c2c(c1)cc1n2CCCNC1=O` [Example 274, 1-Oxo-7-phenyl-2,3,4,5-tetrahydro-[1,4]diazepino[1,2-a]indole-9-carbonitrile], the melting point stood at 237.5 °C. The same compound displayed an EC (150% of control) in data set [1] of 1.1 µM.

As to `O=C1NCCn2c1cc1cc(F)c(F)c(-c3ccc(Cl)cc3)c12` [Example 45, 6-(4-Chloro-phenyl)-7,8-difluoro-3,4-dihydro-2H-pyrazino[1,2-a]indol-1-one], the melting point turned out to be 332.5 °C. The same compound displayed an EC (150% of control) in data set [1] of 0.076 µM.

For the compound `O=C1NCCn2c1cc1cc(F)cc(-c3ccncc3)c12` [Example 21, 8-Fluoro-6-pyridin-4-yl-3,4-dihydro-2H-pyrazino[1,2-a]indol-1-one], the melting point came to 323.5 °C. In addition, in data set [1], the EC (150% of control) is 0.036 µM.

`N#Cc1cc(-c2ccc(F)cc2F)c2c(c1)cc1n2CCCNC1=O` [Example 221, 7-(2,4-Difluorophenyl)-1-oxo-2,3,4,5-tetrahydro-[1,4]diazepino[1,2-a]indole-9-carbonitrile] registered a melting point of 216.5 °C. Besides, in data set [1], the EC (150% of control) stood at 0.073 µM.

The compound `Cc1c2n(c3c(-c4ccc(F)cc4)cc(Cl)cc13)CCCNC2=O` [Example 70, 9-Chloro-7-(4-fluoro-phenyl)-11-methyl-2,3,4,5-tetrahydro-[1,4]diazepino[1,2-a]indol-1-one] came in with a melting point of 260 °C. This compound displayed an EC (150% of control) in data set [1] of 0.063 µM.

For `N#Cc1cc(-c2ccncc2)c2c(c1)cc1n2CCCNC1=O` [Example 271, 1-Oxo-7-pyridin-4-yl-2,3,4,5-tetrahydro-[1,4]diazepino[1,2-a]indole-9-carbonitrile], the melting point was determined as 278.5 °C. The same compound registered an EC (150% of control) in data set [1] of 0.65 µM.

For the compound `Cc1c2n(c3c(-c4ccnc(F)c4)cc(C#N)cc13)CCCNC2=O` [Example 208, 7-(2-Fluoropyridin-4-yl)-11-methyl-1-oxo-2,3,4,5-tetrahydro-[1,4]diazepino[1,2-a]indole-9-carbonitrile], the melting point turned out to be 264 °C. The EC (150% of control) in data set [1] worked out at 0.049 µM.

`COc1ccc(-c2cc(Cl)cc3cc4n(c23)CCCNC4=O)cc1` [Example 54, 9-Chloro-7-(4-methoxy-phenyl)-2,3,4,5-tetrahydro-[1,4]diazepino[1,2-a]indol-1-one] returned a melting point of 218 °C. Besides, the EC (150% of control) in data set [1] is 0.07 µM.

In turn, `Cc1ccc(-c2cc(Cl)cc3c(C)c4n(c23)CCNC4=O)cc1F` [Example 105, 8-Chloro-6-(3-fluoro-4-methyl-phenyl)-10-methyl-3,4-dihydro-2H-pyrazino[1,2-a]indol-1-one] yielded a melting point of 225 °C. In data set [1], the EC (150% of control) came out at 0.029 µM.

What is called melting point is the temperature, or range, at which the solid turns liquid.
